One series relates to IL-8. The series is described as follows: IL-8 mRNA level (qPCR) in cytokine-stimulated Caco-2 cells. The series is classed as cell-based, human. The note with it: 5–80 μM, 6 h cytokine stimulation, maximum effect. The method, then: (§1) Confluent Caco-2 cells were stimulated with a cocktail of cytokines comprised of tumour necrosis factor-α (TNF-α, 20 ng mL^−1), interleukin-1β (IL-1β, 40 ng mL^−1), interferon-γ (IFN-γ, 10 ng mL^−1) and lipopolysaccharide (LPS, 100 ng mL^−1) in the presence or absence of BET, VUL and IND treatments (5–80 µM) for 6 h. With the completion of incubations, cells were washed with cold DPBS and lysed with TRIsure reagent (Scientific Laboratory Supplies Ltd.). Total RNA of cell samples was extracted in accordance with the manufacturer’s instructions. After resuspending the RNA pellets in DEPC water, concentration and quality were determined using the NanoQuant plate (Tecan Spark 10M plate reader) at 260 and 280 nm. Reverse transcription of RNA was achieved using the iScript™ cDNA Synthesis Kit (Bio-Rad). Transcription levels of target genes—interleukin 6 (IL-6), IL-8, COX-2, iNOS, NADPH oxidase 1 (NOX-1), NAD(P)H quinone dehydrogenase 1 (NQO-1), heme oxygenase 1 (HO-1), glutamate-cysteine ligase catalytic subunit (GCLC), glutathione peroxidase 1 (GPX-1), glutathione S-transferase 1 (GSTA-1) and GSTP-1 were evaluated using SybrGreen based reagent (SensiFast SYBR Green, SLS Ltd., Galveston, TX, USA) via real-time qPCR using StepOne Plus Real-Time PCR System (Applied Biosystems, Nottingham, UK). Primers of target genes were designed and blasted using the NCBI database, whose PCR product sizes were confirmed by 2% agarose gel electrophoresis. The list of primer sequences used in the study is presented in Supplemental Table S1. The calculation of target gene levels was based upon the Livak (2^−ΔΔCT) method with normalisation to the housekeeping gene, β-actin [31].

In the next series the test system is COX-2. Nature of the series: COX-2 mRNA level (qPCR) in cytokine-stimulated Caco-2 cells. The note with it: 5–80 μM, 6 h cytokine stimulation, maximum effect. The series is classed as cell-based, human. How it is done: as §1, with “Primers of target genes were designed and blasted using the NCBI database, whose PCR product sizes were confirmed by 2% agarose gel electrophoresis. The list of primer sequences used in the study is presented in Supplemental Table S1. The calculation of target gene levels was based upon the Livak (2^−ΔΔCT) method with normalisation to the housekeeping gene, β-actin [31].” left out

The subject of another series is iNOS. Nature of the series: iNOS mRNA level (qPCR) in cytokine-stimulated Caco-2 cells. The series is classed as cell-based, human. The note with it: 5–80 μM, 6 h cytokine stimulation, maximum effect. The method, then: as §1, with “Primers of target genes were designed and blasted using the NCBI database, whose PCR product sizes were confirmed by 2% agarose gel electrophoresis. The list of primer sequences used in the study is presented in Supplemental Table S1. The calculation of target gene levels was based upon the Livak (2^−ΔΔCT) method with normalisation to the housekeeping gene, β-actin [31].” left out

The test system of a further series is NOX-1. The series is described as follows: NOX-1 mRNA level (qPCR) in cytokine-stimulated Caco-2 cells. The series is classed as cell-based, human. The note with it: 5–80 μM, 6 h cytokine stimulation, maximum effect. How it is done: as §1, with “Primers of target genes were designed and blasted using the NCBI database, whose PCR product sizes were confirmed by 2% agarose gel electrophoresis. The list of primer sequences used in the study is presented in Supplemental Table S1. The calculation of target gene levels was based upon the Livak (2^−ΔΔCT) method with normalisation to the housekeeping gene, β-actin [31].” left out

For another series, the system named is GCLC. The series is described as follows: GCLC mRNA level (qPCR) in cytokine-stimulated Caco-2 cells. The series is classed as cell-based, human. The note with it: 5–80 μM, 6 h cytokine stimulation, vs SC. How it is done:
as §1, with “Primers of target genes were designed and blasted using the NCBI database, whose PCR product sizes were confirmed by 2% agarose gel electrophoresis. The list of primer sequences used in the study is presented in Supplemental Table S1. The calculation of target gene levels was based upon the Livak (2^−ΔΔCT) method with normalisation to the housekeeping gene, β-actin [31].” left out

Another series relates to GPX-1. Nature of the series: GPX-1 mRNA level (qPCR) in cytokine-stimulated Caco-2 cells. The series is classed as cell-based, human. The note with it: 5–80 μM, 6 h cytokine stimulation, vs SC. The method, then: as §1, with “Primers of target genes were designed and blasted using the NCBI database, whose PCR product sizes were confirmed by 2% agarose gel electrophoresis. The list of primer sequences used in the study is presented in Supplemental Table S1. The calculation of target gene levels was based upon the Livak (2^−ΔΔCT) method with normalisation to the housekeeping gene, β-actin [31].” left out

Series [1] in a line: Trans-epithelial transport (AP-to-BL) across differentiated Caco-2 monolayer. The note with it: human, Caco-2, 1 mM in AP chamber, apical pH 6.5, basolateral pH 7.5, read-out: Papp (apparent permeability coefficient), absorptive direction AP-to-BL. The series is classed as in vitro ADME, human. How it is done:
(§2) Trans-epithelial transport of purified betalains (AP-to-BL) was investigated in differentiated Caco-2 cells in 12-well plate transwell inserts (PET membrane, 0.4 μm pore size, Sarstedt) at an initial density of 1 × 10^5 cells cm^−2. Complete medium was added in both apical (AP) and basolateral (BL) chambers and was replaced every 2–3 days. Cell membrane integrity was monitored weekly through measurement of trans-epithelial electrical resistance (TEER) across the growth area until full differentiation of the cells after 21 days. During the experiment, Hanks’ balanced salt solution (HBSS) in the apical compartment was adjusted to pH 6.5 with MES (2 mM), while basolateral pH remained at 7.5 [25]. Purified BET, VUL and IND (420–1000 μM) were supplied to the apical side of the membrane and incubated at 37 °C for up to 2 h. As a marker compound of paracellular transport, phenolsulfonaphtalein (5 mM) was also applied to parallel cell membranes in the apical chamber. The study also evaluated the permeability of compounds through the Caco-2 membrane with a loosened tight junction in parallel wells which was achieved by 5-min incubation of differentiated membrane in trypsin EDTA (0.05%, v/v). The basolateral solution was collected and replaced every 30 min until 2 h, under initial rate conditions. The betalain-containing solutions were processed and submitted to LC-MS analysis, while phenolsulfonaphtalein was quantified spectrophotometrically at λ of 430 nm. TEER values were monitored at the beginning and the end of the experiment to check the impact of compounds on monolayer integrity. The apparent permeability coefficients (Papp) were calculated as per Equation (1), where V = volume of basolateral solution, A = cell growth area, C0 = initial concentration of apical betalain and dC/dt = steady-state flux across the monolayer. (1) Papp=1/C0×A·V×dC/dt
(§3) Betalain compounds from the cell culture samples were quantified and identified by an ultra-high-speed LC fitted with a UV-Vis detector (SPD-20A), followed by a single quadrupole MS with an electrospray ionisation source (ESI) (Shimazu, 2020). HPLC separation was performed by a reverse phase C18 column (100 mm × 2.1 mm I.D., 3.5 μm) at the temperature of 35 °C. […] Betacyanins and betaxanthins were detected at the wavelengths of 536 nm and 486 nm, respectively, and their molecular weights were monitored by ESI-MS with positive ion mode. Compounds were identified based on the m/z values and quantified using standard curves with purified betalains, as shown in Supplemental Figure S1.

For series [2], the system named is differentiated Caco-2 cells. Described as above. The series is classed as in vitro ADME, human. The note with it: AP-to-BL. How it is done:
as §2, §3

Series [3] has as its system differentiated Caco-2 cells. Nature of the series: Intracellular accumulation in differentiated Caco-2 cells. The series is classed as in vitro ADME, human. The note with it: 250 μM, 2 h incubation in HBSS. How it is done:
For accumulation experiments, differentiated Caco-2 cells were incubated with purified BET, VUL and IND (250 μM) for 2 h in HBSS. The cell layer was washed twice with DPBS prior to being scraped into methanol, and pigments were subsequently extracted for LC-MS analysis. The total protein content of lysed cells was determined by bicinchoninic acid (BCA) assay (Pierce™ Thermo Scientific) in accordance with the manufacturer’s instructions.
as §3

On the set-up of series [4]: method as in PMID 18959410. The note with it: cited from earlier work.

Like-named read-outs stand apart in the source and are kept apart here.

For the compound `O=C(O)C1=C/C(=C/C=[N+]2/c3cc(O)c(O[C@@H]4O[C@H](CO)[C@@H](O)[C@H](O)[C@H]4O)cc3C[C@H]2C(=O)[O-])C[C@@H](C(=O)O)N1` [BET, betanin], the “Downregulation of IL-8 expression vs cytokine control (SC)” value with IL-8 is on record as at most 39%. The “Attenuation of COX-2 mRNA levels” value in the series with COX-2 is recorded as “up to 34%”. Further, in the series with iNOS, the “Reduction of iNOS mRNA levels” value is on record as under 42%. Further, in the series on NOX-1, the “Attenuation of NOX-1 mRNA levels” value is “up to 34%”. Moreover, the “Upregulation of GCLC expression” value in the series on GCLC is recorded as under 33%. The “Upregulation of GPX-1 expression” value in the series with GPX-1 is given as under 23%. For the same compound, the Papp A→B at 2 h, 1 mM in series [1] was found to be 4.15 nm/s. Also, in series [2], the “Proportion transported within 2 h of total amount applied” value was 1.0%. Moreover, the Intracellular accumulation in [3] is on record as 0.02 nmol per mg of protein. The “Loss along the digestion” value in series [4] (purified compound) is given as “up to 70%”.
As to `O=C(O)C1=C/C(=C/C=[N+]2/CCC[C@H]2C(=O)[O-])C[C@@H](C(=O)O)N1` [IND, indicaxanthin], the “Downregulation of IL-8 expression vs cytokine control (SC)” value in the series on IL-8 is on record as at most 39%. Moreover, the “Attenuation of COX-2 mRNA levels” value in the series on COX-2 is listed as “up to 34%”. Also, the “Reduction of iNOS mRNA levels” value in the series on iNOS is reported as under 42%. In the series on NOX-1, the “Attenuation of NOX-1 mRNA levels” value is given as “up to 34%”. Besides, the “Upregulation of GCLC expression” value in the series with GCLC is given as under 25%. The “Upregulation of GPX-1 expression” value with GPX-1 is under 26%. Further, the Papp A→B at 2 h, 1 mM in [1] was determined as 8.93 nm/s. The “Proportion transported within 2 h of total amount applied” value in series [2] came to 2.2%. The Intracellular accumulation in [3] was 0.03 nmol per mg of protein. The “Loss along the digestion” value in series [4] is reported as “minor loss”.

(Values after article PMC9405451, “Uptake and Immunomodulatory Properties of Betanin, Vulgaxanthin I and Indicaxanthin towards Caco-2 Intestinal Cells” (Antioxidants, 2022).)
